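Cultured in 96-well plates, cells were exposed to test compound for 48 hours across five concentrations. At the GI50, growth is halved. At the TGI there is no net growth.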
How the values were obtained:
Assay in all cases: NCI anticancer screen, dose series, 48 h
786-0 renal = tested on: 786-0 renal
A498 renal = tested on: A498 renal
A549 NSCLC = tested on: A549 NSCLC
ACHN renal = tested on: ACHN renal
BT-549 breast = tested on: BT-549 breast
CAKI-1 renal = tested on: CAKI-1 renal
CCRF-CEM leukemia = tested on: CCRF-CEM leukemia
COLO 205 colon = tested on: COLO 205 colon
DU-145 prostate = tested on: DU-145 prostate
EKVX NSCLC = tested on: EKVX NSCLC
HCC-2998 colon = tested on: HCC-2998 colon
HCT-116 colon = tested on: HCT-116 colon
HCT-15 colon = tested on: HCT-15 colon
HL-60(TB) leukemia = tested on: HL-60(TB) leukemia
HOP-62 NSCLC = tested on: HOP-62 NSCLC
HOP-92 NSCLC = tested on: HOP-92 NSCLC
HS 578T breast = tested on: HS 578T breast
HT29 colon = tested on: HT29 colon
IGROV1 ovarian = tested on: IGROV1 ovarian
K-562 leukemia = tested on: K-562 leukemia
KM12 colon = tested on: KM12 colon
LOX IMVI melanoma = tested on: LOX IMVI melanoma
M14 melanoma = tested on: M14 melanoma
MALME-3M melanoma = tested on: MALME-3M melanoma
MCF7 breast = tested on: MCF7 breast
MDA-MB-231 breast = tested on: MDA-MB-231 breast
MDA-MB-435 = tested on: MDA-MB-435
MOLT-4 leukemia = tested on: MOLT-4 leukemia
NCI-H226 lung = tested on: NCI-H226 lung
NCI-H23 lung = tested on: NCI-H23 lung
NCI-H460 lung = tested on: NCI-H460 lung
NCI-H522 lung = tested on: NCI-H522 lung
NCI/ADR-RES ovarian = tested on: NCI/ADR-RES ovarian
OVCAR-3 ovarian = tested on: OVCAR-3 ovarian
OVCAR-4 ovarian = tested on: OVCAR-4 ovarian
OVCAR-5 ovarian = tested on: OVCAR-5 ovarian
OVCAR-8 ovarian = tested on: OVCAR-8 ovarian
PC-3 prostate = tested on: PC-3 prostate
RPMI-8226 leukemia = tested on: RPMI-8226 leukemia
RXF 393 renal = tested on: RXF 393 renal
SF-268 CNS = tested on: SF-268 CNS
SF-295 CNS = tested on: SF-295 CNS
SF-539 CNS = tested on: SF-539 CNS
SK-MEL-2 melanoma = tested on: SK-MEL-2 melanoma
SK-MEL-28 melanoma = tested on: SK-MEL-28 melanoma
SK-MEL-5 melanoma = tested on: SK-MEL-5 melanoma
SK-OV-3 ovarian = tested on: SK-OV-3 ovarian
SN12C renal = tested on: SN12C renal
SNB-19 CNS = tested on: SNB-19 CNS
SNB-75 CNS = tested on: SNB-75 CNS
SR leukemia = tested on: SR leukemia
SW-620 colon = tested on: SW-620 colon
T-47D breast = tested on: T-47D breast
TK-10 renal = tested on: TK-10 renal
U251 CNS = tested on: U251 CNS
UACC-257 melanoma = tested on: UACC-257 melanoma
UACC-62 melanoma = tested on: UACC-62 melanoma
UO-31 renal = tested on: UO-31 renal

## COc1cc(OC)cc(C(=O)Nc2cccc(C#Cc3cccc4[nH]nc(N)c34)c2)c1
786-0 renal
  GI50: 2240 nM
  TGI: 11300 nM
A498 renal
  GI50: 4500 nM
  TGI: 11100 nM
A549 NSCLC
  GI50: 1430 nM
  TGI: 18300 nM
ACHN renal
  GI50: 2640 nM
  TGI: 14700 nM
BT-549 breast
  GI50: 1320 nM
  TGI: 6320 nM
CAKI-1 renal
  GI50: 1640 nM
  TGI: 7180 nM
CCRF-CEM leukemia
  GI50: 808 nM
  TGI: > 56000 nM
COLO 205 colon
  GI50: 1160 nM
  TGI: 3630 nM
DU-145 prostate
  GI50: 2930 nM
  TGI: > 39000 nM
EKVX NSCLC
  GI50: 2920 nM
  TGI: > 38200 nM
HCC-2998 colon
  GI50: 1980 nM
  TGI: 4920 nM
HCT-116 colon
  GI50: 548 nM
  TGI: 10700 nM
HCT-15 colon
  GI50: 492 nM
  TGI: 12500 nM
HL-60(TB) leukemia
  GI50: 441 nM
  TGI: 2510 nM
HOP-62 NSCLC
  GI50: 1710 nM
  TGI: 22500 nM
HOP-92 NSCLC
  GI50: 2300 nM
  TGI: 11700 nM
HS 578T breast
  GI50: 1250 nM
  TGI: 5430 nM
HT29 colon
  GI50: 641 nM
  TGI: 5370 nM
IGROV1 ovarian
  GI50: 1130 nM
  TGI: 11100 nM
K-562 leukemia
  GI50: 331 nM
  TGI: > 100000 nM
KM12 colon
  GI50: 957 nM
  TGI: 10400 nM
LOX IMVI melanoma
  GI50: 759 nM
  TGI: 7180 nM
M14 melanoma
  GI50: 535 nM
  TGI: 4550 nM
MALME-3M melanoma
  GI50: 782 nM
  TGI: 13100 nM
MCF7 breast
  GI50: 469 nM
  TGI: 12300 nM
MDA-MB-231 breast
  GI50: 1280 nM
  TGI: 5140 nM
MDA-MB-435
  GI50: 201 nM
  TGI: 490 nM
MOLT-4 leukemia
  GI50: 931 nM
  TGI: 17800 nM
NCI-H226 lung
  GI50: 1930 nM
  TGI: 9030 nM
NCI-H23 lung
  GI50: 2140 nM
  TGI: 11700 nM
NCI-H460 lung
  GI50: 586 nM
  TGI: 10800 nM
NCI-H522 lung
  GI50: 485 nM
  TGI: 2700 nM
NCI/ADR-RES ovarian
  GI50: 1660 nM
  TGI: 8540 nM
OVCAR-3 ovarian
  GI50: 943 nM
  TGI: 11800 nM
OVCAR-4 ovarian
  GI50: 3510 nM
  TGI: 23600 nM
OVCAR-5 ovarian
  GI50: 2970 nM
  TGI: 45500 nM
OVCAR-8 ovarian
  GI50: 2360 nM
  TGI: 13700 nM
PC-3 prostate
  GI50: 2050 nM
  TGI: > 41200 nM
RPMI-8226 leukemia
  GI50: 1770 nM
  TGI: 17800 nM
RXF 393 renal
  GI50: 584 nM
  TGI: 3030 nM
SF-268 CNS
  GI50: 2060 nM
  TGI: 11000 nM
SF-295 CNS
  GI50: 1130 nM
  TGI: 5170 nM
SF-539 CNS
  GI50: 621 nM
  TGI: 2190 nM
SK-MEL-2 melanoma
  GI50: 428 nM
  TGI: 1960 nM
SK-MEL-28 melanoma
  GI50: 1760 nM
  TGI: 15700 nM
SK-MEL-5 melanoma
  GI50: 1010 nM
  TGI: 3290 nM
SK-OV-3 ovarian
  GI50: 3680 nM
  TGI: 22600 nM
SN12C renal
  GI50: 2700 nM
  TGI: 13900 nM
SNB-19 CNS
  GI50: 2460 nM
  TGI: 30900 nM
SNB-75 CNS
  GI50: 306 nM
  TGI: 2710 nM
SR leukemia
  GI50: 133 nM
  TGI: 5480 nM
SW-620 colon
  GI50: 689 nM
  TGI: > 35000 nM
T-47D breast
  GI50: 1210 nM
  TGI: 13800 nM
TK-10 renal
  GI50: 4290 nM
  TGI: 12400 nM
U251 CNS
  GI50: 821 nM
  TGI: 15000 nM
UACC-257 melanoma
  GI50: 2040 nM
  TGI: 11800 nM
UACC-62 melanoma
  GI50: 478 nM
  TGI: 6490 nM
UO-31 renal
  GI50: 2990 nM
  TGI: 12100 nM
